Data: patent publication US9149038B2, “4-amino-6-(heterocyclic)picolinates and 6-amino-2-(heterocyclic)pyrimidine-4-carboxylates and their use as herbicides” (Dow AgroSciences LLC, priority 2013, dated 2015)
Read-outs that look alike come from different tables or passages of the source.

Test system: Wheat and Barley and weed species
Experiment: Post-Emergent Test III: postemergent herbicidal activity in wheat and barley, visual rating after 21 d and probit GR20/GR50/GR80/GR90 (Tables 9-13)
Type: in vivo
Conditions: for GR50 ALOMY / GR50 APESV / GR50 KCHSC / GR50 LOLSS / GR50 SETVI: growth reduction of 50%; for GR50 ALOMY / GR80 ALOMY / GR90 ALOMY / GR50 APESV / GR80 APESV / GR90 APESV / GR20 HORVS / GR50 KCHSC / GR80 KCHSC / GR90 KCHSC / GR50 LOLSS / GR80 LOLSS / GR90 LOLSS / GR50 SETVI / GR80 SETVI / GR90 SETVI / GR20 TRZAS: probit analysis; for GR80 ALOMY / GR80 APESV / GR80 KCHSC / GR80 LOLSS / GR80 SETVI: growth reduction of 80%; for GR90 ALOMY / GR90 APESV / GR90 KCHSC / GR90 LOLSS / GR90 SETVI: growth reduction of 90%; for GR20 HORVS / GR20 TRZAS: growth reduction of 20%; for pest or weed control at 17.5 g/ha / pest or weed control at 35 g/ha / pest or weed control at 70 g/ha: post-emergence, 504 h; for Visual Growth Reduction (%) 21 Days After Application KCHSC / GR50 KCHSC / GR80 KCHSC / GR90 KCHSC: KCHSC kochia (Kochia scoparia)
Text: Herbicidal evaluations were made visually on a scale of 0 to 100 where 0 represents no activity and 100 represents complete plant death.
Seeds of the desired test plant species were planted in Sun Gro MetroMix® 306 planting mixture, which typically has a pH of 6.0 to 6.8 and an organic matter content of about 30 percent, in plastic pots with a surface area of 103.2 square centimeters (cm^2). When required to ensure good germination and healthy plants, a fungicide treatment and/or other chemical or physical treatment was applied. The plants were grown for 7-36 days (d) in a greenhouse with an approximate 14 hour (h) photoperiod which was maintained at about 18° C. during the day and 17° C. during the night. Nutrients and water were added on a regular basis and supplemental lighting was provided with overhead metal halide 1000-Watt lamps as necessary. The plants were employed for testing when they reached the second or third true leaf stage.
A weighed amount, determined by the highest rate to be tested, of each test compound was placed in a 25 mL glass vial and was dissolved in 4 mL of a 97:3 v/v mixture of acetone and DMSO to obtain concentrated stock solutions. […] The concentrated stock solutions obtained were diluted with 20 mL of an aqueous mixture containing acetone, water, isopropyl alcohol, DMSO, Agri-Dex crop oil concentrate, and X-77 surfactant in a 48:39:10:1.5:1.5:0.02 v/v ratio to obtain spray solutions containing the highest application rates. Additional application rates were obtained by serial dilution of 12 mL of the high rate solution into a solution containing 2 mL of a 97:3 v/v mixture of acetone and DMSO and 10 mL of an aqueous mixture containing acetone, water, isopropyl alcohol, DMSO, Agri-Dex crop oil concentrate, and X-77 surfactant in a 48:39:10:1.5:1.5:0.02 v/v ratio to obtain ½×, ¼×, ⅛× and 1/16× rates of the high rate. Compound requirements are based upon a 12 mL application volume at a rate of 187 liters per hectare (L/ha). Formulated compounds were applied to the plant material with an overhead Mandel track sprayer equipped with 8002E nozzles calibrated to deliver 187 L/ha over an application area of 0.503 square meters at a spray height of 18 inches (43 cm) above the average plant canopy height. Control plants were sprayed in the same manner with the solvent blank.
The treated plants and control plants were placed in a greenhouse as described above and watered by subirrigation to prevent wash-off of the test compounds. After 21 d, the condition of the test plants as compared with that of the untreated plants was determined visually and scored on a scale of 0 to 100 percent where 0 corresponds to no injury and 100 corresponds to complete kill and are presented as indicated in Table 4.
By applying the well-accepted probit analysis as described by J. Berkson in Journal of the American Statistical Society, 48, 565 (1953) and by D. Finney in “Probit Analysis” Cambridge University Press (1952), herbicidal injury of a specific compound at various rates can be used to calculate GR20, GR50, GR80 and GR90 values, which are defined as growth reduction factors that correspond to the effective dose of herbicide required to provide plant growth reduction (GR) of 20 percent, 50 percent, 80 percent and 90 percent, respectively. Probit analysis was applied to data collected from multiple dose rates of individual compounds utilizing the procedures explained in the following examples. The data for some of the dose rates and analysis of all of the dose rates are captured in the following tables.

[1] = ALOMY black-grass (Alopecurus myosuroides)
[2] = APESV bentgrass (Apera spica-venti)
[3] = Hordeum vulgare, HORVS barley, spring (crop), 17.5 g ai/ha, read-out: Visual Growth Reduction (%) 21 Days After Application HORVS
[4] = Hordeum vulgare, HORVS barley, spring (crop), 35 g ai/ha, read-out: Visual Growth Reduction (%) 21 Days After Application HORVS
[5] = Hordeum vulgare, HORVS barley, spring (crop), 70 g ai/ha, read-out: Visual Growth Reduction (%) 21 Days After Application HORVS
[6] = SETVI green foxtail (Setaria viridis)
[7] = Triticum aestivum, TRZAS wheat, spring (crop), 17.5 g ai/ha, read-out: Visual Growth Reduction (%) 21 Days After Application TRZAS
[8] = Triticum aestivum, TRZAS wheat, spring (crop), 35 g ai/ha, read-out: Visual Growth Reduction (%) 21 Days After Application TRZAS
[9] = Triticum aestivum, TRZAS wheat, spring (crop), 70 g ai/ha, read-out: Visual Growth Reduction (%) 21 Days After Application TRZAS
[10] = ALOMY black-grass (Alopecurus myosuroides), 17.5 g ai/ha, read-out: Visual Growth Reduction (%) 21 Days After Application ALOMY
[11] = ALOMY black-grass (Alopecurus myosuroides), 35 g ai/ha, read-out: Visual Growth Reduction (%) 21 Days After Application ALOMY
[12] = ALOMY black-grass (Alopecurus myosuroides), 70 g ai/ha, read-out: Visual Growth Reduction (%) 21 Days After Application ALOMY
[13] = APESV bentgrass (Apera spica-venti), 17.5 g ai/ha, read-out: Visual Growth Reduction (%) 21 Days After Application APESV
[14] = APESV bentgrass (Apera spica-venti), 35 g ai/ha, read-out: Visual Growth Reduction (%) 21 Days After Application APESV
[15] = APESV bentgrass (Apera spica-venti), 70 g ai/ha, read-out: Visual Growth Reduction (%) 21 Days After Application APESV
[16] = LOLSS ryegrass, 17.5 g ai/ha, read-out: Visual Growth Reduction (%) 21 Days After Application LOLSS
[17] = LOLSS ryegrass, 35 g ai/ha, read-out: Visual Growth Reduction (%) 21 Days After Application LOLSS
[18] = LOLSS ryegrass, 70 g ai/ha, read-out: Visual Growth Reduction (%) 21 Days After Application LOLSS
[19] = SETVI green foxtail (Setaria viridis), 17.5 g ai/ha, read-out: Visual Growth Reduction (%) 21 Days After Application SETVI
[20] = SETVI green foxtail (Setaria viridis), 35 g ai/ha, read-out: Visual Growth Reduction (%) 21 Days After Application SETVI
[21] = SETVI green foxtail (Setaria viridis), 70 g ai/ha, read-out: Visual Growth Reduction (%) 21 Days After Application SETVI

`COC(=O)c1nc(-c2ccc3c(c2)OC(C)(C)O3)c(F)c(N)c1Cl` [Compound 8] was tested, and the “GR50 ALOMY” value [1] was >70 g ai/ha, the “GR80 ALOMY” value [1] was >70 g ai/ha and the “GR90 ALOMY” value [1] was >70 g ai/ha. For the same compound, the “GR50 APESV” value [2] was 22 g ai/ha, the “GR80 APESV” value [2] was 36 g ai/ha and the “GR90 APESV” value [2] was 46 g ai/ha. For the same compound, the “GR20 HORVS” value (HORVS barley, spring (crop)) was 7 g ai/ha, the pest or weed control at 17.5 g/ha [3] was 30 to 44% and the pest or weed control at 35 g/ha [4] was 60 to 74%. For the same compound, the pest or weed control at 70 g/ha [5] was 60 to 74%, the “Visual Growth Reduction (%) 21 Days After Application KCHSC” value (17.5 g ai/ha) was “E (45-59)” and the “Visual Growth Reduction (%) 21 Days After Application KCHSC” value (35 g ai/ha) was “D (60-74)”. For the same compound, the “Visual Growth Reduction (%) 21 Days After Application KCHSC” value (70 g ai/ha) was “D (60-74)”, the “GR50 KCHSC” value was 21 g ai/ha and the “GR80 KCHSC” value was >70 g ai/ha. For the same compound, the “GR90 KCHSC” value was >70 g ai/ha, the “GR50 LOLSS” value (LOLSS ryegrass) was >70 g ai/ha and the “GR80 LOLSS” value (LOLSS ryegrass) was >70 g ai/ha. For the same compound, the “GR90 LOLSS” value (LOLSS ryegrass) was >70 g ai/ha, the “GR50 SETVI” value [6] was 11 g ai/ha and the “GR80 SETVI” value [6] was 72 g ai/ha. The “GR90 SETVI” value [6] was >70 g ai/ha, the “GR20 TRZAS” value (TRZAS wheat, spring (crop)) was 6 g ai/ha and the pest or weed control at 17.5 g/ha [7] was 30 to 44%. It also gave a pest or weed control at 35 g/ha [8] of 60 to 74%, a pest or weed control at 70 g/ha [9] of 60 to 74% and a pest or weed control at 17.5 g/ha [10] of 0 to 29%. It also gave a pest or weed control at 35 g/ha [11] of 30 to 44%, a pest or weed control at 70 g/ha [12] of 45 to 59% and a pest or weed control at 17.5 g/ha [13] of 0 to 29%. It also gave a pest or weed control at 35 g/ha [14] of 85 to 94%, a pest or weed control at 70 g/ha [15] of 85 to 94% and a pest or weed control at 17.5 g/ha [16] of 0 to 29%. For the same compound, the pest or weed control at 35 g/ha [17] was 0 to 29%, the pest or weed control at 70 g/ha [18] was 30 to 44% and the pest or weed control at 17.5 g/ha [19] was 60 to 74%. It also gave a pest or weed control at 35 g/ha [20] of 75 to 84% and a pest or weed control at 70 g/ha [21] of 75 to 84%.
`COC(=O)c1nc(-c2cc3c(cc2F)OC(F)(F)O3)c(F)c(N)c1Cl` [Compound 9] was tested, and the “GR50 ALOMY” value [1] was 13 g ai/ha, the “GR80 ALOMY” value [1] was 26 g ai/ha and the “GR90 ALOMY” value [1] was 38 g ai/ha. For the same compound, the “GR50 APESV” value [2] was 30 g ai/ha, the “GR80 APESV” value [2] was 61 g ai/ha and the “GR90 APESV” value [2] was 89 g ai/ha. For the same compound, the “GR20 HORVS” value (HORVS barley, spring (crop)) was 3 g ai/ha, the pest or weed control at 17.5 g/ha [3] was 60 to 74% and the pest or weed control at 35 g/ha [4] was 85 to 94%. For the same compound, the pest or weed control at 70 g/ha [5] was 85 to 94%, the “Visual Growth Reduction (%) 21 Days After Application KCHSC” value (17.5 g ai/ha) was “G (0-29)” and the “Visual Growth Reduction (%) 21 Days After Application KCHSC” value (35 g ai/ha) was “G (0-29)”. For the same compound, the “Visual Growth Reduction (%) 21 Days After Application KCHSC” value (70 g ai/ha) was “G (0-29)”, the “GR50 KCHSC” value was >70 g ai/ha and the “GR80 KCHSC” value was >70 g ai/ha. The “GR90 KCHSC” value was >70 g ai/ha, the “GR50 LOLSS” value (LOLSS ryegrass) was 70 g ai/ha and the “GR80 LOLSS” value (LOLSS ryegrass) was >70 g ai/ha. For the same compound, the “GR90 LOLSS” value (LOLSS ryegrass) was >70 g ai/ha, the “GR50 SETVI” value [6] was 21 g ai/ha and the “GR80 SETVI” value [6] was 46 g ai/ha. The “GR90 SETVI” value [6] was 71 g ai/ha, the “GR20 TRZAS” value (TRZAS wheat, spring (crop)) was 4 g ai/ha and the pest or weed control at 17.5 g/ha [7] was 60 to 74%. It also gave a pest or weed control at 35 g/ha [8] of 75 to 84%, a pest or weed control at 70 g/ha [9] of 75 to 84% and a pest or weed control at 17.5 g/ha [10] of 75 to 84%. It also gave a pest or weed control at 35 g/ha [11] of 85 to 94%, a pest or weed control at 70 g/ha [12] of 85 to 94% and a pest or weed control at 17.5 g/ha [13] of 0 to 29%. It also gave a pest or weed control at 35 g/ha [14] of 60 to 74%, a pest or weed control at 70 g/ha [15] of 75 to 84% and a pest or weed control at 17.5 g/ha [16] of 0 to 29%. The pest or weed control at 35 g/ha [17] was 0 to 29%, the pest or weed control at 70 g/ha [18] was 45 to 59% and the pest or weed control at 17.5 g/ha [19] was 45 to 59%. For the same compound, the pest or weed control at 35 g/ha [20] was 75 to 84% and the pest or weed control at 70 g/ha [21] was 85 to 94%.
